Data reported in article PMC12305494, “Discovery of PXR Antagonist MI891 and PXR Degrader MI1013 and Their Roles in Hepatic Gene Regulation” (Journal of Medicinal Chemistry, 2025).
Numbering of substitutions follows the chain as printed. Read-outs that look alike come from different tables or passages of the source.

Tests used:
wild-type PXR LBD = target: T1, wild-type PXR LBD (Homo sapiens, UniProt O75469); assay: Mammalian two-hybrid assay, wt-PXR LBD with SRC-1-VP16 in HepG2; type: cell-based; conditions: MI891 at 10 μM
T1 construct: HepG2 cells were cotransfected with a GAL4-hPXR LBD construct and pSCR1-VP16 construct; expressed in transfected cells; host or cells: HepG2
T1 sequence (O75469 146-433 limits assumed): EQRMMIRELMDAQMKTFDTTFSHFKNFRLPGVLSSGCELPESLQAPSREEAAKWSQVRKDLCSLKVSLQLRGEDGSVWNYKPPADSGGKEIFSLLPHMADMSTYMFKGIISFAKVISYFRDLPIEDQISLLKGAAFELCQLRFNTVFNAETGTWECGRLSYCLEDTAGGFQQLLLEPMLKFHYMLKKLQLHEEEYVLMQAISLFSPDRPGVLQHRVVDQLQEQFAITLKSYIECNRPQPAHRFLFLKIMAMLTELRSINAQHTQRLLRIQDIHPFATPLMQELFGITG
Source text: (§1) Additionally, the GAL4-PXR-LBD triple mutants (S247W/C284W/S208W) construct and wild-type GAL4-wtPXR vector were used for PXR LBD mutant functional two-hybrid assay as we described before. In the mammalian two-hybrid assay, HepG2 cells were cotransfected with a GAL4-hPXR LBD construct and pSCR1-VP16 construct. Renilla luciferase vector was used for the normalization of firefly luciferase activity to Renilla luciferase activity.

[1] = target: T2, triple mutant (S208W/S247W/C284W) PXR LBD (Homo sapiens, UniProt O75469, C284W/S208W/S247W); assay: Mammalian two-hybrid assay, obstructed triple mutant PXR LBD with SRC-1-VP16 in HepG2; type: cell-based
T2 construct: the GAL4-PXR-LBD triple mutants (S247W/C284W/S208W) construct; expressed in transfected cells; host or cells: HepG2
T2 sequence (O75469 146-433 S208W/S247W/C284W limits assumed): T1 sequence (O75469 146-433 limits assumed) with S63W, S102W, C139W
Source text: as §1

HepaRG cells = assay: RT-qPCR gene expression in differentiated HepaRG cells; type: cell-based, human; conditions: 48 h
Method: HepaRG cells (Sigma-Aldrich/Merck) were cultivated and differentiated on 12-well plates. Seeded at 26,600 cells/cm^2, they were maintained in William’s medium with supplements. After 14 days, differentiation into hepatocyte-like cells was induced using 1.5% DMSO for another 14 days.
RT-qPCR was utilized to investigate gene expression in HepaRG and PHH. Total RNA was extracted from these cells using the phenol–chloroform method. The concentration of the isolated RNA was then measured using a Nanodrop 1000 spectro-photometer (Thermo Fisher Scientific).
Following RNA isolation, reverse transcription was performed to convert RNA into complementary DNA (cDNA). This step was carried out using the High-capacity cDNA reverse transcription kit (Cat. No. 4374966, ThermoFisher Scientific). The resulting cDNA served as the template for subsequent qPCR reactions.
The qPCR reactions were conducted on the QuantStudio 6 Flex Real-Time PCR System (ThermoFisher Scientific, Waltham, Mas-sachusetts). For these reactions, TaqMan Universal master mix II (Cat. No. 4440047, ThermoFisher Scientific) and TaqMan assays (FAM) utilized in this study are detailed in the Supporting Information. To quantify gene expression, the cycle threshold (Ct) values of the target genes were normalized to the Ct values of reference genes HPRT1 or GAPDH (HepaRG) or TBP (PHH). The normalized values were then expressed as fold changes (2−ΔΔCt) relative to the DMSO control at the specified time points, with the control set as 1.

PXR [2] = system: PXR; set-up: method as in not given; conditions: ref not given, cited from earlier work
PXR [3] = system: PXR; set-up: method as in not given; conditions: read-out: Ki printed beside SPA70 in Figure 6A; ref not given; cited from earlier work
human CAR LBD [4] = target: T3, human CAR LBD (Homo sapiens, UniProt Q14994); assay: LanthaScreen TR-FRET CAR Coactivator assay; type: biochemical; conditions: nb = no binding
T3 sequence (Q14994 103-352): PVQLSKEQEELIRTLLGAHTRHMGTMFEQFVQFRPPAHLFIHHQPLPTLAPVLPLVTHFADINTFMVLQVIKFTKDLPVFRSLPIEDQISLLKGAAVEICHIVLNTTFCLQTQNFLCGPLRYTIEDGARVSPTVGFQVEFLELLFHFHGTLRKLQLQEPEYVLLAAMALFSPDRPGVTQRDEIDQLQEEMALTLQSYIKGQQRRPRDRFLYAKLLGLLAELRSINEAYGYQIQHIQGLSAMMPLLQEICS
Method: We utilized the LanthaScreen TR-FRET CAR Coactivator Binding Assay Kit, goat (Thermo Fisher Scientific, Cat. No. PV4836), which includes GST-tagged human CAR LBD and a fluorescein-labeled PGC1α coactivator peptide. The assay was performed with slight modifications to the manufacturer’s protocol, as previously reported. […] The interaction with the PXR ligand-binding domain (LBD) was assessed using the LanthaScreen TR-FRET PXR Competitive Binding Assay (Thermo Fisher Scientific, PV4839), as previously described. This assay quantifies the ability of test compounds to displace a fluorescent PXR ligand from the receptor. Fluorescence readings were taken on a Synergy 2 Multi-Mode Microplate Reader (BioTek, Winooski, VT). The half-maximal inhibitory concentration (IC50) for PXR LBD was calculated from at least eight data points using GraphPad Prism software.

human CAR LBD [5] = target: T4, human CAR LBD (Homo sapiens, UniProt Q14994); assay: CAR LBD assembly assay (CAR AA); type: cell-based; conditions: na = no activity; tox = cytotoxicity in HepG2 cells
T4 construct: constructs encoding helices 3–12 and helix 1 of human CAR LBD; expressed in transfected cells; host or cells: HepG2
T4 sequence (Q14994 103-150 isoform Q14994-2 limits assumed): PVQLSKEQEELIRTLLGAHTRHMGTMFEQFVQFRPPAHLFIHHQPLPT
T4 sequence (Q14994 151-348 isoform Q14994-2 limits assumed): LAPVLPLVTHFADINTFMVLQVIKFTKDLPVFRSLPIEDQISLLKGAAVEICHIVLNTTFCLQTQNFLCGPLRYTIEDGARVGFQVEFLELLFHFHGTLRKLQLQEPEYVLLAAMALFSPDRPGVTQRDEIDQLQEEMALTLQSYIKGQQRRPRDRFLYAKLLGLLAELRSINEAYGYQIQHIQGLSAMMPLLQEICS
Source text: The CAR LBD assembly assay used constructs encoding helices 3–12 and helix 1 of human CAR LBD as described before. GL4.31[luc2P/GAL4UAS/Hygro] (pGAL4 UAS-luc) luciferase reporter vector and pRL-TK Renilla expression vector (Promega) were used in the assay in HepG2 cells transfected using Lipofectamine 3000.

[6] = Plasma stability, human plasma; type: in vitro ADME; conditions: up to 120 min, read-out: Plasma stability, t1/2 (min), human
[7] = Plasma stability, mouse plasma; type: in vitro ADME; conditions: up to 120 min, read-out: Plasma stability, t1/2 (min), mouse
Method: (§2) The protocols and reagents for the plasma protein binding assay and metabolic stability testing in human and mouse liver microsomes are detailed in our previous report. Briefly, metabolic stability of compounds was assessed at a single concentration (5 μM) at t = 0, 10, 30, and at t = 45 min. The stability of compounds was tested in human and mouse microsomes (ThermoFisher Scientific). Compounds were tested in triplicate with or without NADPH wells as a negative control for cytochrome P450 metabolism. In addition to hepatic metabolism, compounds were also subjected to degradation/modification by enzymes in human (VWR International) and mouse (Biomedica, CZ) plasma for t = 0, 30, 60, and at t = 120 min. Each assay included a substrate with known activity as a positive control. Time points were analyzed by LC/MS/MS. The peak area for the parent compound is compared to the time zero sample in order to assess the amount of remaining compound.

[8] = Microsomal stability, human microsomes; type: in vitro ADME; conditions: liver microsomes; for half-life at 5 μM: 0.5 mg/mL human microsomes, up to 45 min, read-out: Microsomal stability, t1/2 (min), human; for microsomal CLint at 5 μM: human microsomes, read-out: Microsomal clearance CLint (μl/min/mg), human
Method: as §2, with “Briefly, metabolic stability of compounds was assessed at a single concentration (5 μM) at t = 0, 10, 30, and at t = 45 min.” left out, “In addition to hepatic metabolism, compounds were also subjected to degradation/modification by enzymes in human (VWR International) and mouse (Biomedica, CZ) plasma for t = 0, 30, 60, and at t = 120 min.” left out

[9] = Microsomal stability, mouse microsomes; type: in vitro ADME; conditions: liver microsomes; for half-life at 5 μM: 0.5 mg/mL mouse microsomes, up to 45 min, read-out: Microsomal stability, t1/2 (min), mouse
Method: as §2, with “Briefly, metabolic stability of compounds was assessed at a single concentration (5 μM) at t = 0, 10, 30, and at t = 45 min.” left out, “In addition to hepatic metabolism, compounds were also subjected to degradation/modification by enzymes in human (VWR International) and mouse (Biomedica, CZ) plasma for t = 0, 30, 60, and at t = 120 min.” left out

PXR [10] = target: T5, PXR (Homo sapiens, UniProt O75469); assay: cell-based; conditions: PXR antagonism: PXR inhibition (IC50, μM), antagonist mode with 10 μM rifampicin; mean ± SD, n = 3
T5 sequence (O75469 1-434): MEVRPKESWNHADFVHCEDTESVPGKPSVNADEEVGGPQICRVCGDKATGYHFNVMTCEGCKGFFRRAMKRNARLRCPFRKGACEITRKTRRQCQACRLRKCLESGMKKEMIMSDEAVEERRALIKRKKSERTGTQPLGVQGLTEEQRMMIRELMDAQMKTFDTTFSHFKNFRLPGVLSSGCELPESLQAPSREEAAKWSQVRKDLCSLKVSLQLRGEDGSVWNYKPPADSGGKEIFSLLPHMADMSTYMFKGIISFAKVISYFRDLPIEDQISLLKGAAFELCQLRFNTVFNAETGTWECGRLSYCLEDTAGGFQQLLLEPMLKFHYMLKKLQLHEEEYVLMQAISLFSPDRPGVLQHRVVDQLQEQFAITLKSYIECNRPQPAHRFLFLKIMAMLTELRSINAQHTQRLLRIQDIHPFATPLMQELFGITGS

Row | Compound | effect on wt-PXR-LBD/SRC1-VP16 two-hybrid (wild-type PXR LBD) | activation of obstructed mutated PXR LBD two-hybrid [1] | CYP2B6 gene expression (HepaRG cells; MI891 5 μM, SPA70 5 μM) | CYP3A4 mRNA expression (HepaRG cells; alone or with rifampicin (5 μM), concentration-dependent) | IC50 (PXR [2]; read-out: IC50 printed beside SPA70 in Figure 6A) | Ki (PXR [3]) | CAR TR-FRET (EC50, μM) (human CAR LBD [4]) | EC50 (human CAR LBD [5]) | half-life [6] | half-life [7] | half-life at 5 μM [8] | microsomal CLint at 5 μM [8] | half-life at 5 μM [9] | microsomal CLint at 5 μM ([9]; mouse microsomes, read-out: Microsomal clearance CLint (μl/min/mg), mouse) | IC50 (PXR [10]) | IC50 (PXR [2]; quoted in the Introduction, read-out: PXR antagonist IC50)
1 | COc1ccc(OC)c(-n2nnc(S(=O)(=O)c3ccc(C(C)(C)C)cc3)c2C)c1 [SPA70, reference compound] | activated the wild-type (wt) PXR LBD construct | Neither MI891 nor SPA70 activated the obstructed mutated PXR LBD | downregulated | CYP3A4 mRNA suppression | […] | […] | – | – | – | – | – | – | – | – | – | –
2 | NC(=O)c1cc(Cn2cc(-c3c(-c4ccc(Cl)cc4)nc4c(F)cccn34)nn2)ccc1Cl [Compound 8, 2-Chloro-5-((4-(2-(4-chlorophenyl)-8-fluoroimidazo[1,2-a]pyridin-3-yl)-1H-1,2,3-triazol-1-yl)methyl)benzamide] | – | – | – | – | – | – | nb | 4.14 ± 0.2 µM | > 120 min | > 120 min | 50 ± 4 min | 28 ± 2 µL/min/mg | 8 min | 168 ± 8 µL/min/mg | 12.4 ± 6 µM | –
3 | NC(=O)c1cc(Cn2cc(-c3c(-c4ccc(Cl)cc4)nc4ccc(F)cn34)nn2)ccc1Cl [Compound 10, 2-Chloro-5-((4-(2-(4-chlorophenyl)-6-fluoroimidazo[1,2-a]pyridin-3-yl)-1H-1,2,3-triazol-1-yl)methyl)benzamide] | – | – | – | – | – | – | nb | > 10 µM | > 120 min | > 120 min | 55 ± 9 min | 26 ± 4 µL/min/mg | > 45 min | – | 6.46 ± 0.6 µM | –
4 | CCC[C@H](CC)Oc1ccc(C(=O)OC)cc1NC(=O)c1nnn(-c2cc(OC)ccc2OC)c1C [SJPYT-331] | – | – | – | – | – | – | – | – | – | – | – | – | – | – | – | 0.0071 ± 0.0008 µM
